This note sets out measurements from patent publication US7268152B2, “Glucocorticoid mimetics, methods of making them, pharmaceutical compositions, and uses thereof” (Boehringer Ingelheim Pharmaceuticals, Inc., priority 2002, dated 2007).

This test addresses T1, human glucocorticoid receptor (GR) complex (Homo sapiens, UniProt P04150).
T1 construct: made in house; host or cells: insect expression system (baculovirus lysate)
T1 sequence (P04150 1-777): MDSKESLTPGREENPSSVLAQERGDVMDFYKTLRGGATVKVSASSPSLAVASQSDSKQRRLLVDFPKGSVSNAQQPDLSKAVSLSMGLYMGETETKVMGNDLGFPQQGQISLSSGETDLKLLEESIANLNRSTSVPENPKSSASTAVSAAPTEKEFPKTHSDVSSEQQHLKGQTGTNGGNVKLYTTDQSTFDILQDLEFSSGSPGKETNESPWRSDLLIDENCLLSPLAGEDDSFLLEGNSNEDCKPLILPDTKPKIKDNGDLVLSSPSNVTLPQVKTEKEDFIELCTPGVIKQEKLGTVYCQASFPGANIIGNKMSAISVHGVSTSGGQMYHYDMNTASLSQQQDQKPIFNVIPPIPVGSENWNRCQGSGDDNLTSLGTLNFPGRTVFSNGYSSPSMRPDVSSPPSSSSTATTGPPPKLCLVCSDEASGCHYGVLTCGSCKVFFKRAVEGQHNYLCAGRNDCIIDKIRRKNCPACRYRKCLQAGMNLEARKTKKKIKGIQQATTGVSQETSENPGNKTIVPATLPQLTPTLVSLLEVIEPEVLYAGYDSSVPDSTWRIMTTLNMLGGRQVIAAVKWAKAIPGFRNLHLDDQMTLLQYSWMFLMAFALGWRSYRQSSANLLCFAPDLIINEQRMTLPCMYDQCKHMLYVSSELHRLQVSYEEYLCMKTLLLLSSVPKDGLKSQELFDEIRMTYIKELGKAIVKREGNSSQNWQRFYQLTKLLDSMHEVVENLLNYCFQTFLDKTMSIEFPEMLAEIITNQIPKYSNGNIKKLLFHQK
Briefly: Glucocorticoid receptor competitive binding assay (fluorescence polarization). The conditions noted are these: competition with TAMRA-labeled dexamethasone. On the procedure: Compounds of the invention were evaluated for binding to the steroid receptor by a fluorescence polarization competitive binding assay. Detailed descriptions for preparation of recombinant glucocorticoid receptor (GR) complex used in the assay is described in U.S. provisional application No. 60/291,877, filed May 18, 2001, and incorporated herein by reference in its entirety. Preparation of the tetramethyl rhodamine (TAMRA)-labeled dexamethasone probe was accomplished using a standard literature procedure (M. Pons et al., J. Steroid Biochem., 1985, 22, pp. 267-273).
A. Glucocorticoid Receptor Competitive Binding Assay
Step 1. Characterization of the Fluorescent Probe
The wavelengths for maximum excitation and emission of the fluorescent probe should first be measured. An example of such a probe is rhodamine (TAMRA)-labeled dexamethasone.
The affinity of the probe for the steroid receptor was then determined in a titration experiment. The fluorescence polarization value of the probe in assay buffer was measured on an SLM-8100 fluorometer using the excitation and emission maximum values described above. Aliquots of expression vector lysate were added and fluorescence polarization was measured after each addition until no further change in polarization value was observed. Non-linear least squares regression analysis was used to calculate the dissociation constant of the probe from the polarization values obtained for lysate binding to the probe.
Step 2. Screeningfor Inhibitors of Probe Binding
This assay uses fluorescence polarization (FP) to quantitate the ability of test compounds to compete with tetramethyl rhodamine (TAMRA)-labeled dexamethasone for binding to a human glucocorticoid receptor (GR) complex prepared from an insect expression system. The assay buffer was: 10 mM TES, 50 mM KCl, 20 mM Na2MoO4.2H2O, 1.5 mM EDTA, 0.04% w/v CHAPS, 10% v/v glycerol, 1 mM dithiothreitol, pH 7.4. Test compounds were dissolved to 1 mM in neat DMSO and then further diluted to 10×assay concentration in assay buffer supplemented with 10% v/v DMSO. Test compounds were serially diluted at 10×assay concentrations in 10% DMSO-containing buffer in 96-well polypropylene plates. Binding reaction mixtures were prepared in 96-well black Dynex microtiter plates by sequential addition of the following assay components to each well: […] of 10×test compound solution, 85 μL of GR-containing baculovirus lysate diluted 1:170 in assay buffer, and 50 μL of 15 nM TAMRA-labeled dexamethasone. Positive controls were reaction mixtures containing no test compound; negative controls (blanks) were reaction mixtures containing 0.7 μM to 2 μM dexamethasone. The binding reactions were incubated for 1 hour at room temperature and then read for fluorescence polarization in the LJL Analyst set to 550 nm excitation and 580 nm emission, with the Rhodamine 561 dichroic mirror installed. IC50 values were determined by iterative non-linear curve fitting of the FP signal data to a 4-parameter logistic equation.
In general terms: Fluorescence polarisation rises when a labelled molecule tumbles more slowly, as on binding a larger partner.

pIC50: −log10 of the molar value.

With `COc1ccc(F)cc1C(C)(C)CC(O)(Cc1ccc(Cl)cc1Cl)C(F)(F)F` (stereo not drawn) [2-(2,4-Dichlorobenzyl)-1,1,1-trifluoro-4-(5-fluoro-2-methoxyphenyl)-4-methylpentan-2-ol], the pIC50 (usually −log10 of the IC50, conventionally taken in molar units) was at least 7.00.
`COc1ccccc1C(C)(C)CC(O)(Cc1cc(C)cc(C)c1)C(F)(F)F` (stereo not drawn) [2-(3,5-Dimethylbenzyl)-1,1,1-tri fluoro-4-(2-methoxyphenyl)-4-methylpentan-2-ol] had a negative logarithm of the IC50 (pIC50) of at least 7.00.
`CC(C)(CC(O)(Cc1cc(C(F)(F)F)cc(Cl)c1F)C(F)(F)F)c1cc(F)ccc1O` (stereo not drawn) [2-[3-(3-Chloro-2-fluoro-5-trifluoromethylbenzyl)-4,4,4-trifluoro-3-hydroxy-1,1-dimethylbutyl]-4-fluorophenol] had a pIC50 of at least 7.00.
Take `CC(C)(CC(O)(Cc1ccc(Cl)c(Cl)c1)C(F)(F)F)c1cc(F)ccc1O` (stereo not drawn) [2-[3-(3,4-Dichlorobenzyl)-4,4,4-trifluoro-3-hydroxy-1,1-dimethylbutyl]-4-fluorophenol]: the negative-log IC50 (pIC50) was at least 7.00.
The compound `Cc1ccc(F)cc1C(C)(C)CC(O)(Cc1ccc(Cl)c(Cl)c1)C(F)(F)F` (stereo not drawn) [2-(3,4-Dichlorobenzyl)-1,1,1-trifluoro-4-(5-fluoro-2-methylphenyl)-4-methylpentan-2-ol] gave a pIC50 of at least 7.00.
For `Cc1cccc(CC(O)(CC(C)(C)c2cc(F)ccc2O)C(F)(F)F)c1` (stereo not drawn) [4-Fluoro-2-[4,4,4-trifluoro-3-hydroxy-1,1-dimethyl-3-(3-methylbenzyl)butyl]phenol], the pIC50 was at least 7.00.
The result for `COc1ccc(F)cc1C(C)(C)CC(O)(Cc1ccc(C(F)(F)F)c(F)c1)C(F)(F)F` (stereo not drawn) reads at least 7.00.
Consider `COc1ccc(F)cc1C(C)(C)CC(O)(Cc1cc(F)cc(C(F)(F)F)c1)C(F)(F)F` (stereo not drawn) [1,1,1-Trifluoro-4-(5-fluoro-2-methoxyphenyl)-2-(3-fluoro-5-trifluoromethylbenzyl)-4-methylpentan-2-ol], for which the pIC50 was at least 7.00.
Compound `COc1ccc(F)cc1C(C)(C)CC(O)(Cc1ccc(C#N)cc1)C(F)(F)F` (stereo not drawn) [4-[4-(5-Fluoro-2-methoxyphenyl)-2-hydroxy-4-methyl-2-trifluoromethylpentyl]benzonitrile] showed a pIC50 of at least 7.00.
The result for `CC(C)(CC(O)(Cc1cc(F)c(F)c(F)c1)C(F)(F)F)c1cc(F)ccc1O` (stereo not drawn) [4-Fluoro-2-[4,4,4-trifluoro-3-hydroxy-1,1-dimethyl-3-(3,4,5-trifluorobenzyl)butyl]phenol] reads at least 7.00; that for `Cc1ccc(F)cc1C(C)(C)CC(O)(Cc1cc(C(F)(F)F)cc(Cl)c1F)C(F)(F)F` (stereo not drawn) [2-(3-Chloro-2-fluoro-5-trifluoromethylbenzyl)-1,1,1-trifluoro-4-(5-fluoro-2-methylphenyl)-4-methylpentan-2-ol], at least 7.00.
The compound `CC(C)(CC(O)(Cc1cc(C(F)(F)F)cc(Cl)c1F)C(F)(F)F)c1ccccc1` (stereo not drawn) [2-(3-Chloro-2-fluoro-5-trifluoromethylbenzyl)-1,1,1-trifluoro-4-methyl-4-phenylpentan-2-ol] had a pIC50 of at least 7.00.
The result for `CC(C)(CC(O)(Cc1cc(C(F)(F)F)cc(Cl)c1F)C(F)(F)F)c1cccc2c1OCC2` (stereo not drawn) [2-(3-Chloro-2-fluoro-5-trifluoromethylbenzyl)-4-(2,3-dihydrobenzofuran-7-yl)-1,1,1-trifluoro-4-methylpentan-2-ol] reads at least 7.00.
Regarding `CC(C)(CC(O)(Cc1cc(C(F)(F)F)cc(Cl)c1F)C(F)(F)F)c1cc([N+](=O)[O-])cc2c1OCC2` (stereo not drawn), the pIC50 was at least 7.00.
For the compound `CC(C)(CC(O)(Cc1cc(Cl)cc(Cl)c1)C(F)(F)F)c1ccccc1` (stereo not drawn) [2-(3,5-Dichlorobenzyl)-1,1,1-trifluoro-4-methyl-4-phenylpentan-2-ol], the pIC50 is at least 7.00.
The result for `COc1ccc(F)cc1C(C)(C)CC(O)(Cc1cc(Cl)cc(C#N)c1)C(F)(F)F` (stereo not drawn) [3-Chloro-5-[4-(5-fluoro-2-methoxyphenyl)-2-hydroxy-4-methyl-2-trifluoromethylpentyl]benzonitrile] reads at least 7.00; that for `Cc1cc(C)cc(CC(O)(CC(C)(C)c2cc(F)ccc2O)C(F)(F)F)c1` (stereo not drawn) [2-[3-(3,5-Dimethylbenzyl)-4,4,4-trifluoro-3-hydroxy-1,1-dimethylbutyl]4-fluorophenol], at least 7.00; that for `CCOc1ccc(F)cc1C(C)(C)CC(O)(Cc1cc(C(F)(F)F)cc(Cl)c1F)C(F)(F)F` (stereo not drawn) [2-(3-Chloro-2-fluoro-5-trifluoromethylbenzyl)-4-(2-ethoxy-5-fluorophenyl)-1,1,1-trifluoro-4-methylpentan-2-ol], at least 7.00.
With `COc1ccc(F)cc1C(C)(C)CC(O)(Cc1cc(Cl)cc(Cl)c1Cl)C(F)(F)F` (stereo not drawn), the pIC50 is at least 7.00.
`CC(C)(CC(O)(Cc1ccc(Cl)cc1)C(F)(F)F)c1cc(F)ccc1O` (stereo not drawn) [2-[3-(4-Chlorobenzyl)-4,4,4-trifluoro-3-hydroxy-1,1-dimethylbutyl]-4-fluorophenol] had a pIC50 of at least 7.00.
For `CC(C)(CC(O)(Cc1cc(C(F)(F)F)cc(Cl)c1F)C(F)(F)F)c1ccc(Cl)c(Cl)c1` (stereo not drawn) [2-(3-Chloro-2-fluoro-5-trifluoromethylbenzyl)-4-(3,4-dichlorophenyl)-1,1,1-trifluoro-4-methylpentan-2-ol] the value was at least 7.00.
`COc1ccc(F)cc1C(C)(C)CC(O)(Cc1cccc(C(F)(F)F)c1F)C(F)(F)F` (stereo not drawn) [1,1,1-Trifluoro-4-(5-fluoro-2-methoxyphenyl)-2-(2-fluoro-3-trifluoromethylbenzyl)-4-methylpentan-2-ol] gave a negative-log IC50 (pIC50) of at least 7.00.
In the case of `CC(C)(CC(O)(Cc1ccccc1)C(F)(F)F)c1ccccc1` (stereo not drawn) [2-Benzyl-1,1,1-trifluoro-4-methyl-4-phenylpentan-2-ol], the pIC50 was at least 7.00.
The result for `COc1ccc(F)cc1C(C)(C)CC(O)(Cc1cccc(Br)c1)C(F)(F)F` (stereo not drawn) [2-(3-Bromobenzyl)-1,1,1-trifluoro-4-(5-fluoro-2-methoxyphenyl)-4-methylpentan-2-ol] reads at least 7.00; that for `CC(C)(CC(O)(Cc1ccc(F)c(F)c1)C(F)(F)F)c1cc(F)ccc1O` (stereo not drawn) [2-[3-(3,4-Difluorobenzyl)-4,4,4-trifluoro-3-hydroxy-1,1-dimethylbutyl]4-fluorophenol], at least 7.00; that for `COc1ccc(C(C)(C)CC(O)(Cc2ccc(C#N)cc2Cl)C(F)(F)F)cc1` (stereo not drawn) [3-Chloro-4-[2-hydroxy-4-(4-methoxyphenyl)-4-methyl-2-trifluoromethylpentyl]benzonitrile], at least 7.00.
`CC(C)(CC(O)(Cc1ccc(C#N)cc1Cl)C(F)(F)F)c1ccc(O)cc1` (stereo not drawn) [3-Chloro-4-[2-hydroxy-4-(4-hydroxyphenyl)-4-methyl-2-trifluoromethylpentyl]benzonitrile] had a negative-log IC50 (pIC50) of at least 7.00.
In the case of `COc1ccc(F)cc1C(C)(C)CC(O)(Cc1ccc(Cl)c(C(F)(F)F)c1)C(F)(F)F` (stereo not drawn) [2-(4-Chloro-3-trifluoromethylbenzyl)-1,1,1-trifluoro-4-(5-fluoro-2-methoxyphenyl)-4-methylpentan-2-ol], the negative-log IC50 (pIC50) was at least 7.00.
For `Cc1cc(CC(O)(CC(C)(C)c2cc(F)ccc2O)C(F)(F)F)ccc1F` (stereo not drawn) [4-Fluoro-2-[4,4,4-trifluoro-3-(4-fluoro-3-methylbenzyl)-3-hydroxy-1,1-dimethylbutyl]phenol] the value was at least 7.00; for `CC(C)(CC(O)(Cc1ccc(Cl)c(Cl)c1)C(F)(F)F)c1cccc(Cl)c1` (stereo not drawn) [4-(3-Chlorophenyl)-2-(3,4-dichlorobenzyl)-1,1,1-trifluoro-4-methylpentan-2-ol], at least 7.00.
